Legend:
Type in all cases: cell-based, human
pRb = experiment: Western blot of pRb in HeLa cells; conditions: 16 hours
Description: (§1) (B and C) Western blot analysis. 50 μg of protein were separated in 8% (for pRb) and 12% SDS-PAGE gels. After electrotransfer, the filters were incubated with pRb, E2F-1 (B) and (C) p53 specific antibodies. Equal protein loading was confirmed with a monoclonal actin antibody.
(§2) Cellular extracts were separated in 8-12% SDS PAGE gels and electrotransferred as described elsewhere (Finzer et al., Oncogene 19 (2000), 3235-3244; Soto et al., Oncogene 18 (1999), 3187-3198). The following antibodies were used: cyclin E (HE 12), cyclin D 1 (HD 11), cdk2 (M2), (D-12; Santa Cruz Biotechnology, Inc., Santa Cruz, USA), cdk4 (C-22), cdk6 (C-21), p27^KIP1 (C-19), (K25020), p45^SKP2 (N-19), HPV18-E7 (N-19) and E2F-1 (KH95) (Santa Cruz Biotechnology, Inc. Santa Cruz, USA), p21^CIP1 (C24420; Transduction Laboratories, Lexington, USA), pRB (NCL-RB; Novocastra, UK), p16^INK4 (15126E, Pharmingen, San Diego, USA) and HPV 16 E7 (ZYMED Lab. Inc., San Francisco, USA). Cyclin A was kindly provided by M. Pagano (Pagano et al., EMBO J. 11 (1992), 961-971). Equal protein transfer and loading was routinely checked by incubating the filters with a monoclonal actin antibody (ICN Biomedicals, Ohio, USA).
(§3) Western blot analysis: 50 μg of protein was separated in 8% (for pRb) and 12% SDS-PAGE gels. After electrotransfer, the filters were incubated with pRb, E2F-1 (f) and (g) p53 specific antibodies. […]

cyclin E = experiment: Western blot of cyclin E in HeLa cells; conditions: 16 hours
Description: 50 μg of protein were separated on 12% SDS-PAGE minigels. After electrotransfer, the filters were incubated with antibodies against cyclin D1, cyclin E, cyclin A or cdk2, cdk4 or cdk6 specific antibodies. Equal protein loading was confirmed by reincubating the filters with a monoclonal actin antibody.
as §2
50 μg of protein was separated on 12% SDS-PAGE minigels. […]

cyclin-cdk2 complex = experiment: Western blot analysis of cdk2 immunoprecipitates from HeLa cells (p21, p27, E7 binding)
From the text: (B-E) Western blot analysis of the cdk2 complex. Cdk2 precipitates were separated in a 12% SDS-PAGE gel and immunoblotted with p21^CIP1 (B), p27^KIP1 (C) and HPV18 E7 specific antibodies.
(§4) (B) Cdk2 activity after NaB application. Upper panel: Cdk 2 complexes were immunoprecipitated and assayed for their activity using histone H1 as substrate. Lower panels: Western blot analysis of the cdk 2 complexes which were precipitated, separated in a 12% SDS-PAGE gel and immunoblotted with specific antibodies used in panel A. Loading was verified by incubation with cdk 2 antibodies.
(§5) For cell fractionation, cell monolayers were washed twice with PBS and harvested by trypsinisation. Cell extract preparation and cdk2 activity assays were exactly done as described by Blomberg and Hoffmann, Mol. Cell. Biol. 19 (1999), 6183-6194. In addition, cdk2 was immunoprecipitated and analyzed by immunoblotting. Beads used for cdk2 kinase assay were washed 3 times with lysis buffer (Blomberg and Hoffmann, 1999), incubated with Laemmli sample buffer and boiled for 5 min. Supernatant was analyzed by SDS-PAGE gels. Immunoblotting was carried out with the following antibodies: p21^CIP1 (C24420) and p27^KIP1 (K25020; Transduction Laboratories) or HPV18-E7 (N-19; Santa Cruz, Inc.). Cdk2 specific antibodies or preimmune serum were kindly provided by I. Hoffmann (DKFZ, Heidelberg).
Western blot analysis of the cdk2 complex. Cdk2 precipitates were separated in a 12% SDS-PAGE gel and immunoblotted with p21^CIP1, p27^KIP1 and HPV 18 E7 specific antibodies. Equal loading was verified by incubation with cdk2 antibodies. PI: preimmune serum. (Contr.): untreated cells; (DMSO): DMSO control; (TSA): treated with 330 nM trichostatin A for 16 hours.

cdk2 = experiment: Histone H1 kinase assay of cdk2 complexes immunoprecipitated from HeLa cells; conditions: for cdk2 kinase activity, time course: 6 mM sodium butyrate, 3, 6, 9, 12 and 16 hours; for cdk2 kinase activity (histone H1): 16 hours
From the text: (A) Autoradiography. Cdk2 complexes were immunoprecipitated from HeLa cells and assayed for their activity using histone H1 as substrate. (“[…]”: preimmune serum).
as §4, §5
Autoradiography. Cdk2 complexes were immunoprecipitated from HeLa cells and assayed for their activity using histone H1 as substrate. (“PI”: preimmune serum).
Autoradiography. Cdk2 complexes were immunoprecipitated from HeLa cells and assayed for their activity as in (c). […] (Contr.): untreated cells harvested after 3, 6, 9, 12, and 16 hours.

E2F-1 = experiment: Western blot of E2F-1 in HeLa cells; conditions: 16 hours
Description: as §1, §2, §3

p21^CIP1 = experiment: Western blot of p21^CIP1 in HeLa cells; conditions: 16 hours
Description: (A) Westem blot analysis. 50 μg of cellular protein were loaded on SDS-PAGE minigels. After electrotransfer, the filters were incubated with p21^CIP1, p27^KIP1, p16^INK4 and p45^SKP2. Equal protein loading was confirmed by a monoclonal actin antibody.
as §2
Western blot analysis. 50 μg of cellular protein was loaded on SDS-PAGE minigels. After electrotransfer, the filters were incubated with p21^CIP1, p27^KIP1, p16^INK4 and p45^SKP2. […]

HeLa cells = experiment: Quantification of apoptosis, Cell Death Detection ELISA, HeLa cells; conditions: 16 hours
Description: (D) Quantification of apoptosis using a commercially available “Cell Death Detection ELISA” kit.
The rate of apoptosis was determined with the Cell Death Detection kit (ELISA^PLUS, Roche Diagnostics, Mannheim, Germany) following the instructions of the manufacturer.
Quantification of apoptosis using a commercially available “Cell Death Detection ELISA” kit. The enrichment factor, for untreated control cells arbitrarily set as 1, directly reflects the extent of apoptosis in HeLa cells after treatment with trichostatin A for 16 hours. (Contr.): untreated cells; (DMSO): DMSO control; (TSA): treated with 330 nM trichostatin A for 16 hours.

[1] = 330 nM trichostatin A, 16 hours

For `CCCC(=O)[O-].[Na+]` [sodium butyrate], the pRb protein level (pRb; 6 mM sodium butyrate) was “totally degraded”, the “cyclin E protein level” value (cyclin E; 6 mM sodium butyrate) was “strongly increased” and the “E7 in the cdk2 complex” value (cyclin-cdk2 complex; 6 mM sodium butyrate, 16 hours) was “completely disappeared”. For the same molecule, the “association of p21^CIP1 and p27^KIP1 with the cdk2 complex” value (cyclin-cdk2 complex; 6 mM sodium butyrate, 16 hours) was “both CK1s became associated with the cdk2 complex”, the “E7 bound to cyclin-cdk2 complexes, time course” value (cyclin-cdk2 complex; NaB time course) was “completely disappeared between 12-16 hours” and the “association of p21^CIP1 and p27^KIP1 with the cdk2 complex, time course” value (cyclin-cdk2 complex; NaB time course) was “threshold amounts of both CKIs became associated with the cdk2 complex (between 12-16 hours)”. For the same molecule, the “cdk2 kinase activity, time course” value (cdk2) was “still active after 9 hours, but abruptly declined 3 hours later”, the “cdk2 kinase activity, time course” value (cdk2; listed as NaB) was “remained active up to 9 hours, but immediately declined between 12-16 hours” and the “cdk2 kinase activity (histone H1)” value (cdk2; 6 mM sodium butyrate, vs untreated control) was “completely abolished”. The E2F-1 level (E2F-1; 6 mM sodium butyrate) was “no consequences on gene expression and translation”, the “p21^CIP1 protein level” value (p21^CIP1; 6 mM sodium butyrate) was “significantly induced” and the “apoptosis (release of histone-associated DNA fragments)” value (“apoptosis” for short) (HeLa cells; sodium butyrate) was “induce programmed cell death to a significant extent”.

For `CC(/C=C/C(=O)NO)=C\[C@@H](C)C(=O)c1ccc(N(C)C)cc1` [trichostatin A], the pRb protein level (pRb; 330 nM trichostatin A) was “Mediates pRB Degradation”, the “cyclin E protein level” value (cyclin E; 330 nM trichostatin A) was “Upregulates” and the “E7 binding to the cdk2 complex” value (cyclin-cdk2 complex; [1]) was “Loss of E7 Binding”. The “interaction of p21^CIP1 and p27^KIP1 with cdk2” value (cyclin-cdk2 complex; [1]) was “Enhanced Interaction”, the “cdk2 kinase activity (histone H1)” value (cdk2; 330 nM trichostatin A) was “Suppresses” and the E2F-1 level (E2F-1; 330 nM trichostatin A) was “without Affecting”. For the same molecule, the “p21^CIP1 protein level” value (p21^CIP1; 330 nM trichostatin A) was “Induces”, the “apoptosis” value (HeLa cells; 330 nM trichostatin A) was “much stronger” and the “apoptosis” value (HeLa cells; 330 nM trichostatin A, listed as Trichostatin A) was “Induction of Apoptosis”.
